Counter-ions that a name gives are not always drawn.
Test system: Digitaria sanguinalis
Experiment: Test Example 1 (Foliage Treatment Test), herbicidal effect by visual observation
Assay type: in vivo
Settings: foliar application at six-leaf stage, 27 days after treatment
Text: Upland soil was placed in 1/10,000-are (are (a) = 100 m²) pots and sown with Digitaria sanguinalis. When the plants reached the six-leaf stage, a predetermined amount of each herbicidal composition which had been diluted with 10 ℓ, per are, of water and further admixed with 0.2 % (v/v) of a spreader (Shin Rino®: manufactured by Nihon Nohyaku Co., Ltd.) was foliarly applied on the plants using a small spray gun. 27 days after the foliage treatment application, the herbicidal effect of the herbicidal composition was examined through visual observation according to the following evaluation criteria.

Structure (SMILES) | Rating (0.25 g/a active ingredient) | Rating (0.5 g/a active ingredient) | Rating (1 g/a active ingredient) | Rating (2.5 g/a active ingredient) | Rating (5 g/a active ingredient)
COc1cc(OC)nc(NC(=O)NS(=O)(=O)c2ncccc2C(F)(F)F)n1 [Compound A, 1-(4,6-dimethoxy-pyrimidin-2-yl)-3-(3-trifluoromethyl-2-pyridylsulfonyl)urea] | 2 (20 to 29) | 3 (30 to 39) | 3 (30 to 39) | – | –
O=C(O)CNCP(=O)(O)O [Isopropylamine salt of Compound B, isopropylamine salt of N-(phosphonomethyl)glycine, reference compound] | – | – | – | 4 (40 to 49) | 6 (60 to 69)

From patent publication EP0475392B1, “Herbicidal composition” (ISHIHARA SANGYO KAISHA, Ltd., priority 1990, dated 1992)
